Data reported in patent US20240254072A1, “DERIVATIVES OF CANNABIDIOL-C4 FOR THE TREATMENT OF EPILEPSY” (priority 2021, published 2024).
“And” between values parts separate entries of the source, which are not always exact repeats. Equal values may be shown once. Read-outs that look alike come from different tables or passages of the source.

What was measured:
[1] = tested on: Maximal Electroshock generalised seizures; conditions: data of EP3160457 / WO 2020/104796; cited from earlier work
[2] = range of toxicology screens, WO 2020/104796; cited from earlier work
[3] = tested on: pentylenetetrazole-induced generalised seizures; conditions: data of EP3160457; cited from earlier work
inflammation = conditions: WO 01/95899; cited from earlier work
[4] = tested on: tonic hind limb extensor convulsions induced by electroshock (generalised seizure); assay: mini-MEST (maximal electroshock seizure threshold) test in the mouse; conditions: for CC50 +/- SEM (current producing tonic hind limb extension in 50% of animals) / % change from vehicle (CC50): mouse, i.p., 30 min post dose, diazepam 2.5 mg/kg, Compound I 100 mg/kg, Compound II 150 mg/kg; for CC50 +/- SEM (current producing tonic hind limb extension in 50% of animals): N=6
Method: The maximal electroshock seizure threshold (MEST) test is widely utilized preclinically to evaluate pro- or anti-convulsant properties of test compounds (Loscher et al., 1991).
In the MEST test the ability of a drug to alter the seizure threshold current required to induce hind limb tonic extensor convulsions is measured according to an “up and down” method of shock titration (Kimball et al., 1957). An increase in seizure threshold is indicative of anti-convulsant effect.
The ability of a test compound to alter the stimulus intensity, expressed as current (mA), required to induce the presence of tonic hind limb extensor convulsions, is assessed in the MEST.
Naïve mice were acclimatised to the procedure room in their home cages for up to 7 days, with food and water available ad libitum.
All animals were weighed at the beginning of the study and randomly assigned to treatment groups based on a mean distribution of body weight across groups.
The first animal within a treatment group was given a shock at the expected or estimated CC50 current. For subsequent animals, the current was lowered or raised depending on the convulsions outcome from the preceding animal in log scale intervals.
Data generated from each treatment group were used to calculate the CC50±SEM values for the treatment group.
Vehicle: (5% ethanol, 10% solutol in 85% Saline) was prepared as follows: 1 mL of ethanol, 2 mL of solutol were warmed to 60° ° C., in 17 mL of saline (1:2:17).
The test compounds, described herein as Compound I and Compound II, are as shown as Formula I and Formula II respectively. Test compounds were administered at 100 mg/kg (i.p.) for Compound I and 150 mg/kg (i.p.) for Compound II in a 1:2:17 ethanol:solutol:0.9% saline formulation.
The data for each treatment group were recorded as the number of +'s and 0's at each current level employed and this information is then used to calculate the CC50 value (current required for 50% of the animals to show seizure behaviour)±standard error.
Test compound effects were also calculated as percentage change in CC50 from the vehicle control group.
Significant difference between drug-treated animals and controls were assessed according to Litchfield and Wilcoxon (1949).

[5] = Bioanalysis of plasma and brain concentrations by UPLC-MS/MS; type: in vivo, mice; conditions: mouse, i.p., 30 min post-dose, Compound I 100 mg/kg, Compound II 150 mg/kg; for Brain concentration / Brain concentration at 30 min: Location Brain; for Plasma Conc. (individual animal) / concentration at 30 min: Location Plasma; for Brain concentration at 30 min / concentration at 30 min: in vivo
Method: Each animal was humanely killed immediately after production of a convulsion by destruction of the brain from striking the cranium, followed by the confirmation of permanent cessation of the circulation from decapitation under The Humane Killing of Animals under Schedule 1 to the Animals (Scientific Procedures) Act 1986. Terminal blood and brain collection were performed following decapitation.
Blood was collected in Lithium-heparin tubes and centrifuged at 4 °C for 10 minutes at 1500× g. The resulting plasma was removed (>100 μL) and split into 2 aliquots of 0.5 mL Eppendorf tubes containing 10 μL of ascorbic acid (100 mg/mL) for stabilisation. Brains were removed, washed in saline and halved. Each half was placed into separate 2 mL screw cap cryovials, weighed and frozen on cardice.
Bioanalysis experiments were carried out to determine the quantitative measurement of Compound I and Compound II in plasma and brain.
Six mice were dosed with Compound I at 100 mg/kg and another six with Compound II at 150 mg/kg via intraperitoneal (i.p) injection. Sample analysis was performed 30 min post-dose using a sample volume of 40 μL. Following addition of internal standard (in acetonitrile) and Isopropanol samples were protein precipitated by addition of acetonitrile. Samples were centrifuged and supernatant transferred to a clean 96-well plate (with addition of Tween to minimise non-specific binding to plate materials), evaporated to dryness then reconstituted in suitable solvent. The extracts quantified by ultraperformance liquid chromatography-tandem mass spectrometry (UPLC-MS/MS).

[6] = read-out: Mean Plasma Conc., Location Brain
[7] = read-out: Plasma Conc., Location Brain (individual animal)
[8] = read-out: Plasma Conc. (individual animal)

Row | SMILES | anticonvulsant effect in MES model [1] | anticonvulsant effect in PTZ model [3] | CC50 +/- SEM (current producing tonic hind limb extension in 50% of animals) [4] [mA] | Brain concentration [5] | Plasma Conc. (individual animal) [5] | Brain concentration at 30 min [5, 6] [µM] | Brain concentration at 30 min [5, 7] [µM] | concentration at 30 min ([5]; read-out: Mean Plasma Conc.) [µM] | concentration at 30 min [5, 8] [µM] | % change from vehicle (CC50) [4] [%] | also measured
1 | C=C(C)[C@@H]1CCC(C)=C[C@H]1c1c(O)cc(CCCC)cc1O [CBD-C4, Cannabidiol-C4] | Therapeutic efficacy was shown | – | – | – | – | – | – | – | – | – | toxicology [2]: acceptable toxicology
2 | C=C(C)[C@@H]1CCC(CO)=C[C@H]1c1c(O)cc(CCCCC)cc1O [Compound 7-OH-CBD, 7-hydroxy-cannabidiol] | anticonvulsant effects | anticonvulsant effects | – | – | – | – | – | – | – | – | effect in model of inflammation (inflammation): found to be effective
3 | C=C(C)[C@@H]1CCC(CO)=C[C@H]1c1c(O)cc(CCC)cc1O [Compound 7-OH-CBDV, 7-hydroxy-cannabidivarin] | anticonvulsant effects | anticonvulsant effects | – | – | – | – | – | – | – | – | –
4 | C=C(C)[C@@H]1CCC(CO)=C[C@H]1c1c(O)cc(CCCC)cc1O [Compound I, (1′R,2′R)-4-butyl-5′-(hydroxymethyl)-2′-(prop-1-en-2-yl)-1′,2′,3′,4′-tetrahydro-[1,1′-biphenyl]-2,6-diol] | – | – | >131 | 122.248 µM and 113.886 µM and 107.349 µM and 125.595 µM and 129.784 µM | 252.278 µM and 248.66 µM and 242.732 µM | 122 | 131 | 251 | 264 | – | occurrence of tonic hindlimb convulsions in treatment group ([4]; Compound I 100 mg/kg i.p., 30 min, 6 animals): did not have any convulsions
5 | C=C(C)[C@@H]1CCC(C(=O)O)=C[C@H]1c1c(O)cc(CCCC)cc1O [Compound II, (1R,6R)-4′-butyl-2′,6′-dihydroxy-6-(prop-1-en-2-yl)-1,4,5,6-tetrahydro-[1,1′-biphenyl]-3-carboxylic acid] | – | – | <43 | 22.356 µM and 22.956 µM and 15.408 µM and 23.332 µM and 19.363 µM | 856.643 µM and 1008.984 µM and 1144.841 µM and 1209.706 µM and 1141.405 µM | 19.8 | 15.7 | 1050 | 960 | <72 | –
6 | CN1C(=O)CN=C(c2ccccc2)c2cc(Cl)ccc21 [Diazepam, diazepam, reference compound] | – | – | – | – | – | – | – | – | – | 291 | –
